Results as given in patent US11559538B2, “Substituted 1,2-oxaborolan-2-ols as PDE4 inhibitors” (Pfizer Inc., priority 2018, dated 2023).
Like-named read-outs stand apart in the source and are kept apart here.

Experiments:
Assay type in all cases: cell-based
IL-4 = assay: Cytokine assay: IL-4 release from PHA-L stimulated human PBMCs; conditions: read-out: IL4 IC50
Method: (§1) Cytokine inhibitory activity is determined by measuring the effect of test agent on the release of the cytokines IL-4, IL-13 and IFNγ from human peripheral blood mononuclear cells (PBMCs) stimulated with the T-cell mitogen phytohemagglutinin-L (PHA-L). At the time of assay, human PBMCs (Astarte Biologics) are removed from cryopreservation, thawed quickly at 37° C., diluted in assay medium (RPMI-Gibco 1640 medium, 10% heat inactivated fetal bovine serum (HIFBS), 2 mM glutamine and 10 mM HEPES pH 7.4) and then centrifuged at 250×g for 5 minutes. The resulting cell pellet is re-suspended in assay medium to a concentration of approximately 5×10^6 cells/mL and 50 μL of this cell suspension (approximately 250,000 cells) is added to each well of a 384-well cell culture microtiter plate (Perkin Elmer). Varying concentrations of test compound are then diluted in assay medium and added to the assay plate wells in a volume of 25 μL. After −10 minutes at room temperature (21° C.) the cells are stimulated by the addition of 25 μL of PHA-L (14 μg/mL; Millipore) and the assay plate is placed in an incubator at 37° C. in a humidified environment in 5% carbon dioxide. The final assay conditions are approximately 250,000 human PBMCs per well in assay medium containing 3.5 μg/mL PHA-L and the indicated final concentration of test compound (approximately 10 μM to […] by 4-fold dilution). The final concentration of DMSO in the assay is approximately 0.25%. After 48 hours, the assay plate is removed from the incubator and centrifuged at 250×g for 5 minutes. A portion of the resulting cell supernatant is then used to determine the amount of IL-4, IL-13 and IFNγ in each well. Cytokine measurements are made using human IL-4, IL-13 or IFNγ HTRF assay kits (CisBio) following the manufacturer's assay protocol. The concentrations and resulting effect values for tested compounds are plotted and the concentration of compound required for 50% effect (IC50) is determined with a four-parameter logistic dose response equation (E-WorkBook, ID Business Solutions Ltd.) and shown in Table 17.

IL-13 = assay: Cytokine assay: IL-13 release from PHA-L stimulated human PBMCs; conditions: read-out: IL13 IC50
Method: as §1

IFNγ = assay: Cytokine assay: IFNγ release from PHA-L stimulated human PBMCs
Method: as §1

SMILES | IC50 (IL-4; Homo sapiens, PBMC) [nM] | IC50 (IL-13; Homo sapiens, PBMC) [nM] | IC50 (IFNγ; Homo sapiens, PBMC) [nM] | IC50 (IL-13) [nM] | IC50 (IFNγ) [nM] | IC50 (IL-4) [nM]
CCCOc1cc(-c2cc(C3COB(O)C3)cnn2)ccc1OC (stereo not drawn) [Example 137] | 37.2 | 1090 | 2.52 | – | – | –
CCCOc1cc(-c2nc(C(C)O)cc(C3COB(O)C3)n2)ccc1OC (stereo not drawn) [Example 83, 4-(6-(1-hydroxyethyl)-2-(4-methoxy-3-propoxyphenyl)pyrimidin-4-yl)-1,2-oxaborolan-2-ol] | 9.42 | 439 | 4.73 | – | – | –
CCOc1cc(-c2cncc(C3COB(O)C3)c2)ccc1SC (stereo not drawn) [Example 144, 4-(5-(3-ethoxy-4-(methylthio)phenyl)pyridin-3-yl)-1,2-oxaborolan-2-ol] | 83.9 | 706 | 5.02 | – | – | –
CCCOc1cc(-c2cncc(C3COB(O)C3)c2)ccc1SC (single isomer, unassigned) [Example 114, 4-(5-(4-(methylthio)-3-propoxyphenyl)pyridin-3-yl)-1,2-oxaborolan-2-ol] | 32.7 | 2910 | 21.5 | – | – | –
CCCOc1cc(-c2nc(COC)cc(C3COB(O)C3)n2)ccc1OC (stereo not drawn) [Example 102, 4-(2-(4-methoxy-3-propoxyphenyl)-6-(methoxymethyl)pyrimidin-4-yl)-1,2-oxaborolan-2-ol] | 2.07 | 1240 | 3.01 | – | – | –
CCCOc1cc(-c2cc(C3COB(O)C3)cnn2)ccc1OC (single isomer, unassigned) [Example 136, 4-(6-(4-methoxy-3-propoxyphenyl)pyridazin-4-yl)-1,2-oxaborolan-2-ol] | 11.7 | 670 | 2.43 | – | – | –
CCCOc1cc(-c2cncc(C3COB(O)C3)c2)ccc1OC(F)F (stereo not drawn) [Example 50, 4-(5-(4-(difluoromethoxy)-3-propoxyphenyl)pyridin-3-yl)-1,2-oxaborolan-2-ol] | 1.04 | 234 | 1.52 | – | – | –
COc1ccc(-c2cccc(C3COB(O)C3)c2)c(C#N)c1OC (stereo not drawn) [Example 177, 3′-(2-hydroxy-1,2-oxaborolan-4-yl)-3,4-dimethoxy-[1,1′-biphenyl]-2-carbonitrile] | 155 | 1220 | 8.49 | – | – | –
COc1ccc(-c2cccc(C3COB(O)C3)c2)cc1OCC(C)C (stereo not drawn) [Example 183, 4-(3′-isobutoxy-4′-methoxy-[1,1′-biphenyl]-3-yl)-1,2-oxaborolan-2-ol] | 102 | 1370 | 6.4 | – | – | –
CSc1ccc(-c2cncc(C3COB(O)C3)c2)cc1OC1CCCC1 (single isomer, unassigned) [Example 100, 4-(5-(3-(cyclopentyloxy)-4-(methylthio)phenyl)pyridin-3-yl)-1,2-oxaborolan-2-ol] | 32.7 | – | – | 472 | 4.32 | –
CCCOc1cc(-c2cc(CO)cc(C3COB(O)C3)n2)ccc1OC (stereo not drawn) [Example 64, 4-(4-(hydroxymethyl)-6-(4-methoxy-3-propoxphenyl)pyridin-2-yl)-1,2-oxaborolan-2-ol] | 8.04 | 325 | 4.44 | – | – | –
CCCOc1c(OC)ccc(-c2cccc(C3COB(O)C3)c2)c1F (stereo not drawn) [Example 116, 4-(2′-fluoro-4′-methoxy-3′-propoxy-[1,1′-biphenyl]-3-yl)-1,2-oxaborolan-2-ol] | 42 | 508 | 2.45 | – | – | –
COc1cnc(-c2cccc(C3COB(O)C3)c2)nc1OC (stereo not drawn) [Example 122, 4-(3-(4,5-dimethoxypyrimidin-2-yl)phenyl)-1,2-oxaborolan-2-ol] | 362 | 567 | 7.49 | – | – | –
CCOc1cc(-c2cncc(C3COB(O)C3)c2)c(C)cc1OC (single isomer, unassigned) [Example 70, 4-(5-(5-ethoxy-4-methoxy-2-methylphenyl)pyridin-3-yl)-1,2-oxaborolan-2-ol] | – | – | – | 890 | 2.85 | 4.31
CCOc1ccc(-c2cncc(C3COB(O)C3)c2)cc1OCC (single isomer, unassigned) [Example 97, 4-(5-(3,4-diethoxyphenyl)pyridin-3-yl)-1,2-oxaborolan-2-ol] | – | – | 2.81 | 465 | – | 34
CCCOc1cc(-c2nc(COC)cc(C3COB(O)C3)n2)ccc1OC (single isomer, unassigned) [Example 103, 4-(2-(4-methoxy-3-propoxyphenyl)-6-(methoxymethyl)pyrimidin-4-yl)-1,2-oxaborolan-2-ol] | 0.83 | 487 | 0.76 | – | – | –
CCOc1cc(-c2cncc(C3COB(O)C3)c2)c(C)cc1OC (single isomer, unassigned) [Example 71, 4-(5-(5-ethoxy-4-methoxy-2-methylphenyl)pyridin-3-yl)-1,2-oxaborolan-2-ol] | – | – | – | 1910 | 18.8 | 42
COc1ccc(-c2nc(C3COB(O)C3)ccc2F)cc1OC1CCCC1 (stereo not drawn) [Example 131, 4-(6-(3-(cyclopentyloxy)-4-methoxyphenyl)-5-fluoropyridin-2-yl)-1,2-oxaborolan-2-ol] | 11.6 | 591 | 5.7 | – | – | –
COc1ccc(-c2cccc(C3COB(O)C3)n2)cc1OC (stereo not drawn) [Example 197, 4-(6-(3,4-dimethoxyphenyl)pyridin-2-yl)-1,2-oxaborolan-2-ol] | 107 | 1580 | 12.2 | – | – | –
CSc1ccc(-c2cncc(C3COB(O)C3)c2)cc1OC1CCCC1 (single isomer, unassigned) [Example 101, 4-(5-(3-(cyclopentyloxy)-4-(methylthio)phenyl)pyridin-3-yl)-1,2-oxaborolan-2-ol] | – | – | – | 2650 | 13.3 | 26
CCOc1cc(-c2cncc(C3COB(O)C3)c2)cc(Cl)c1OC (stereo not drawn) [Example 45, 4-(5-(3-chloro-5-ethoxy-4-methoxyphenyl)pyridin-3-yl)-1,2-oxaborolan-2-ol] | 12.4 | 450 | 3.88 | – | – | –
CCCOc1cc(-c2nc(OCCO)cc(C3COB(O)C3)n2)ccc1OC (stereo not drawn) [Example 195, 4-(6-(2-hydroxyethoxy)-2-(4-methoxy-3-propoxyphenyl)pyrimidin-4-yl)-1,2-oxaborolan-2-ol] | 0.36 | 2190 | 0.33 | – | – | –
CCCOc1c(OC)ccc(-c2cncc(C3COB(O)C3)c2)c1F (stereo not drawn) [Example 82, 4-(5-(2-fluoro-4-methoxy-3-propoxphenyl)pyridin-3-yl)-1,2-oxaborolan-2-ol] | – | – | – | 426 | 1.07 | 7.14
CCCOc1cc(-c2cncc(C3COB(O)C3)c2)c(F)cc1OC (stereo not drawn) [Example 49, 4-(5-(2-fluoro-4-methoxy-5-propoxyphenyl)pyridin-3-yl)-1,2-oxaborolan-2-ol] | 4.4 | 166 | 3.21 | – | – | –
CCCOc1cc(-c2cncc(C3COB(O)C3)c2)ccc1SC (stereo not drawn) [Example 113, 4-(5-(4-(methylthio)-3-propoxyphenyl)pyridin-3-yl)-1,2-oxaborolan-2-ol] | – | – | – | 497 | 3.81 | 36.1
CCCOc1cc(-c2cccc(C3COB(O)C3)n2)ccc1OC (stereo not drawn) [Example 127, 4-(6-(4-methoxy-3-propoxyphenyl)pyridin-2-yl)-1,2-oxaborolan-2-ol] | 62.6 | 585 | 2.84 | – | – | –
COc1ccc(-c2cccc(C3COB(O)C3)n2)cc1OC1CCCC1 (stereo not drawn) [Example 65, 4-(6-(3-(cyclopentyloxy)-4-methoxyphenyl)pyridin-2-yl)-1,2-oxaborolan-2-ol] | 186 | 814 | 5.34 | – | – | –
COc1ccc(-c2cncc(C3COB(O)C3)c2)c(F)c1OC (stereo not drawn) [Example 108, 4-(5-(2-fluoro-3,4-dimethoxyphenyl)pyridin-3-yl)-1,2-oxaborolan-2-ol] | – | – | – | 493 | 4.35 | 22.1
